Assay results from ChEMBL document CHEMBL4002641, “Indolyl-naphthyl-maleimides as potent and selective inhibitors of protein kinase C-α/β” (Bioorg Med Chem Lett, 2017).

Experiments:
[1] = target: T1, Protein kinase C epsilon type (Homo sapiens, UniProt Q02156); experiment: Inhibition of PKCepsilon (unknown origin) after 60 mins in presence of [gamma33P]ATP by scintillation proximity assay
T1 sequence (Q02156 whole entry): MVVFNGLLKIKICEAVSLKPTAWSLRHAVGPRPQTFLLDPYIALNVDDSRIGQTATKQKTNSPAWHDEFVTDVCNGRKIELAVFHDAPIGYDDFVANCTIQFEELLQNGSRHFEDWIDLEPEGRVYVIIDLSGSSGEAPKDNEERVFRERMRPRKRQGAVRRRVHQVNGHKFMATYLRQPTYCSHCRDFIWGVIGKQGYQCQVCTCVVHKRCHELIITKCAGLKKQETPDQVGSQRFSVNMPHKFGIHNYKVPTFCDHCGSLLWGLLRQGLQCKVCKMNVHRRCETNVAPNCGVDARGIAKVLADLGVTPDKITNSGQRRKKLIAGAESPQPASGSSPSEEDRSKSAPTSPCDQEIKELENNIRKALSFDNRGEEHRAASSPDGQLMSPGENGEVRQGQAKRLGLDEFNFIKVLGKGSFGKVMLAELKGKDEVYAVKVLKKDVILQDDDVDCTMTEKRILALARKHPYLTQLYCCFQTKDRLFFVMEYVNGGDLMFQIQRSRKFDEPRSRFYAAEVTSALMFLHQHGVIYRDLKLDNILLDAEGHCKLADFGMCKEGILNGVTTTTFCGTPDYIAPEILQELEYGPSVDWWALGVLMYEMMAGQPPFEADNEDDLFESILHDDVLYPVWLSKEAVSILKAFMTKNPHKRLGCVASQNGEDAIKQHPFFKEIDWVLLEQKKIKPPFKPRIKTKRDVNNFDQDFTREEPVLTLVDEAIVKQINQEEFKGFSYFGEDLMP

[2] = target: T2, Protein kinase C beta type (Homo sapiens, UniProt P05771); experiment: Inhibition of PKCbeta1 (unknown origin) after 60 mins in presence of [gamma33P]ATP by scintillation proximity assay
T2 sequence (P05771 whole entry): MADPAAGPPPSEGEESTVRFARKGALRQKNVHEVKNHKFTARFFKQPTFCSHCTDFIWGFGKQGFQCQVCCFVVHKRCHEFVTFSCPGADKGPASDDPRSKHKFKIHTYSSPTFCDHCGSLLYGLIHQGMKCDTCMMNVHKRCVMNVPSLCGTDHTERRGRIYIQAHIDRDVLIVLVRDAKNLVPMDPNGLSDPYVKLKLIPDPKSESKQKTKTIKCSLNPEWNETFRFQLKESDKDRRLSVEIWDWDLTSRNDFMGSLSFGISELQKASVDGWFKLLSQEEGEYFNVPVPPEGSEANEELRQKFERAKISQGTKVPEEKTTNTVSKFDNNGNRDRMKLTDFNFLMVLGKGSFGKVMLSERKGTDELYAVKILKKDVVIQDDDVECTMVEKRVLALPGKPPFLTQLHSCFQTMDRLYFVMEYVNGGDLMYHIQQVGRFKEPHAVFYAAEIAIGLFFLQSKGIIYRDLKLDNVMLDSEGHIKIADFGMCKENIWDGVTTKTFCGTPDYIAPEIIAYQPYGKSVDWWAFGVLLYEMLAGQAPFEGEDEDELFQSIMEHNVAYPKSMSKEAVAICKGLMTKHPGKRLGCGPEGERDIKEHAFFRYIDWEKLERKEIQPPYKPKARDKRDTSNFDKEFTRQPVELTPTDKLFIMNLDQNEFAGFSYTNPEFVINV

[3] = target: Protein kinase C eta type (Homo sapiens, UniProt P24723); experiment: Inhibition of PKCeta (unknown origin) after 60 mins in presence of [gamma33P]ATP by scintillation proximity assay
Sequence of Protein kinase C eta type (P24723 whole entry): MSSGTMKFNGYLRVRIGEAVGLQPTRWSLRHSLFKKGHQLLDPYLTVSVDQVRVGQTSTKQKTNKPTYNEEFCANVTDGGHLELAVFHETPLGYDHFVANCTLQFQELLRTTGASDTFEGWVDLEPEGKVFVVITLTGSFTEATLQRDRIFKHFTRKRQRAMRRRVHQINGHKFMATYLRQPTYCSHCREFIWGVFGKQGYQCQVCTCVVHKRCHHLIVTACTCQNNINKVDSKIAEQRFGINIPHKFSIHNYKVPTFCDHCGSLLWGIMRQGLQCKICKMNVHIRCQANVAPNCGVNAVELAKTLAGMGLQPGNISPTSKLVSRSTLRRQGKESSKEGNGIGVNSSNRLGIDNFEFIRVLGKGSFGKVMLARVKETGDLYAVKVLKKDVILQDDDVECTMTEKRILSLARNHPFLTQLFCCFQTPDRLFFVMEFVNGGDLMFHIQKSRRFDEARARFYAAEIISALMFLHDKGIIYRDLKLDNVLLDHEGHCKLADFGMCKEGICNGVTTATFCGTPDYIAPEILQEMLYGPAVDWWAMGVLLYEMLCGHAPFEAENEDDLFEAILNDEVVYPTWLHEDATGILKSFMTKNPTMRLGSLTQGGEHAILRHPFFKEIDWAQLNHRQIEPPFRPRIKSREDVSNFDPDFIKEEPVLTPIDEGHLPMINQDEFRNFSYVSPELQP

[4] = target: T3, Protein kinase C theta type (Homo sapiens, UniProt Q04759); experiment: Inhibition of PKCtheta (unknown origin) after 60 mins in presence of [gamma33P]ATP by scintillation proximity assay
T3 sequence (Q04759 whole entry): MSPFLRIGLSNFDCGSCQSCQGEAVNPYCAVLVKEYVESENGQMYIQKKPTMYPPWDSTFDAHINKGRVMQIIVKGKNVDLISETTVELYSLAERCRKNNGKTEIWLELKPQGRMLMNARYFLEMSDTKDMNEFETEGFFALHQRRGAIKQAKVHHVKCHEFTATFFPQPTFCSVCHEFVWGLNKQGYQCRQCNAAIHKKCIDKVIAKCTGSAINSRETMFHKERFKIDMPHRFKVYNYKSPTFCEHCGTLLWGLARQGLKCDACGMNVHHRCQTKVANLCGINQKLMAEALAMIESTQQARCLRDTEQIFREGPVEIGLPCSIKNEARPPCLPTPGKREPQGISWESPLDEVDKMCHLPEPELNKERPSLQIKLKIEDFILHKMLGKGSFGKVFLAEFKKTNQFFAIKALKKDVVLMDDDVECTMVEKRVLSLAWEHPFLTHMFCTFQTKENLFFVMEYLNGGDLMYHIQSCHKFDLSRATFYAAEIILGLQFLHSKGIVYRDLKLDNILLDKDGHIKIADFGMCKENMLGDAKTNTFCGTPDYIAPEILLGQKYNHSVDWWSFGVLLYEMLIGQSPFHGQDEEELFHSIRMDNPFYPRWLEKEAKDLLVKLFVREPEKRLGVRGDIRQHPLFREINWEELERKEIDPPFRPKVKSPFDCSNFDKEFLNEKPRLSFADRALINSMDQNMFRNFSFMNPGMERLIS

[5] = target: T4, Protein kinase C alpha type (Homo sapiens, UniProt P17252); experiment: Inhibition of PKCalpha (unknown origin) after 60 mins in presence of [gamma33P]ATP by scintillation proximity assay
[6] = target: Protein kinase C delta type (Homo sapiens, UniProt Q05655); experiment: Inhibition of PKCdelta (unknown origin) after 60 mins in presence of [gamma33P]ATP by scintillation proximity assay
Sequence of Protein kinase C delta type (Q05655 whole entry): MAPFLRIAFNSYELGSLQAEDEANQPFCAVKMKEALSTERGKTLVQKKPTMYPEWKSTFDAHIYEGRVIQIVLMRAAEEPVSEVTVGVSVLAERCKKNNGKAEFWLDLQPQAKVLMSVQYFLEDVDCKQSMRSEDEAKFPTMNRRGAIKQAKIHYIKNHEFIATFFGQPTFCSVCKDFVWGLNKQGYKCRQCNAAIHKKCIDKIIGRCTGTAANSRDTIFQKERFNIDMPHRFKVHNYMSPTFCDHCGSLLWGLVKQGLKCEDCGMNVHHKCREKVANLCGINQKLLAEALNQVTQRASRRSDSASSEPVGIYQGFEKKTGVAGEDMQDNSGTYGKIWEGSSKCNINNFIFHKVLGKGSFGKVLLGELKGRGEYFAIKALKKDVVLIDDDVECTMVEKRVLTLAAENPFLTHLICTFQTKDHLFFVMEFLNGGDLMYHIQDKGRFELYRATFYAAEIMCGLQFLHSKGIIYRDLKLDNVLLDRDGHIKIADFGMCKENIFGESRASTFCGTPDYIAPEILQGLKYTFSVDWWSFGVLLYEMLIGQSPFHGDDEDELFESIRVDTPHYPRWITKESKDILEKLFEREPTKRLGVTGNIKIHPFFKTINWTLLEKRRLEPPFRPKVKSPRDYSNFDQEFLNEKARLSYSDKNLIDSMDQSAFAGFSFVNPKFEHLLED

[7] = Aqueous solubility of the compound; format: physicochemical; details: buffer
[8] = target: T3, Protein kinase C theta type; experiment: Inhibition of PKCtheta in human Jurkat T cells assessed as reduction in anti-CD3/CD28 antibody-induced T-cell activation by measuring decrease in IL-2 secretion after 5 hrs by luciferase reporter gene assay; format: cell-based
PBMC = experiment: Inhibition of human PBMC proliferation assessed as decrease in [3H]-TdR uptake after 6 days by mixed lymphocyte reaction assay; format: functional, cell-based
[9] = target: T4, Protein kinase C alpha type; experiment: Reversible competitive inhibition of PKCalpha (unknown origin)
[10] = target: T2, Protein kinase C beta type; experiment: Reversible competitive inhibition of PKCbeta1 (unknown origin)
[11] = target: T5, Cyclin-dependent kinase 2 (Homo sapiens, UniProt P24941); experiment: Inhibition of CDK2 (unknown origin) at 1 uM
[12] = target: T5, Cyclin-dependent kinase 2; experiment: Inhibition of CDK2 (unknown origin)

SMILES	IC50 [1]	IC50 [2]	IC50 [3]	IC50 [4]	IC50 [5]	IC50 [6]	solubility [7]	IC50 [8]	Ki [9]	Ki [10]	inhibition [11]	IC50 [12]	IC50 (PBMC)
CC(=O)N(C)Cc1ccc2ccc(Cl)c(C3=C(c4cn(C)c5ccccc45)C(=O)NC3=O)c2c1	> 316 nM	41 nM	> 316 nM	> 316 nM	63 nM	284 nM	–	–	–	–	–	–	–
CNCc1ccc2ccc(Cl)c(C3=C(c4cn(C)c5ccccc45)C(=O)NC3=O)c2c1	30 nM	1.4 nM	34 nM	21 nM	0.5 nM	15 nM	–	–	–	–	–	–	–
CC(C)NCc1ccc2ccc(Cl)c(C3=C(c4cn(C)c5ccccc45)C(=O)NC3=O)c2c1	73 nM	2.9 nM	182 nM	101 nM	2.7 nM	79 nM	–	–	–	–	–	–	–
Cc1ccc2ccc(CN)cc2c1C1=C(c2cn(C)c3ccccc23)C(=O)NC1=O	> 316 nM	42 nM	> 316 nM	> 316 nM	95 nM	> 316 nM	–	–	–	–	–	–	–
Cn1cc(C2=C(c3cccc4cc(CN)ccc34)C(=O)NC2=O)c2ccccc21	225 nM	133 nM	308 nM	276 nM	136 nM	92 nM	–	–	–	–	–	–	–
CN(C)Cc1ccc2c(C3=C(c4cn(C)c5ccccc45)C(=O)NC3=O)c(Cl)ccc2c1	18 nM	6.8 nM	30 nM	–	3.7 nM	17 nM	Insoluble	185 nM	–	–	–	–	54 nM
Cc1ccc2ccc(CN)cc2c1C1=C(c2c[nH]c3ccccc23)C(=O)NC1=O	> 316 nM	43 nM	> 316 nM	> 316 nM	49 nM	> 316 nM	–	–	–	–	–	–	–
CN(C)Cc1ccc2ccc(Cl)c(C3=C(c4c[nH]c5ccccc45)C(=O)NC3=O)c2c1	182 nM	0.7 nM	316 nM	216 nM	0.5 nM	303 nM	Insoluble	708 nM	–	–	–	–	406 nM
CN(C)Cc1ccc2c(C3=C(c4c[nH]c5ccccc45)C(=O)NC3=O)c(Cl)ccc2c1	4.3 nM	3.4 nM	–	12 nM	1.8 nM	–	Insoluble	156 nM	–	–	–	–	59 nM
CN1CCN(c2nc(C3=C(c4c[nH]c5ccccc45)C(=O)NC3=O)c3ccccc3n2)CC1 [SOTRASTAURIN]	–	–	–	–	–	–	–	81 nM	–	–	–	–	28 nM
COCCNCc1ccc2ccc(Cl)c(C3=C(c4cn(C)c5ccccc45)C(=O)NC3=O)c2c1	110 nM	3.1 nM	206 nM	21 nM	2.8 nM	39 nM	–	–	–	–	–	–	–

Now from value to compound, other results behind:

IC50 [1]	IC50 [2]	IC50 [3]	IC50 [4]	IC50 [5]	IC50 [6]	solubility [7]	IC50 [8]	Ki [9]	Ki [10]	inhibition [11]	IC50 [12]	SMILES	IC50 (PBMC)
223 nM	2 nM	316 nM	254 nM	3.4 nM	230 nM	–	–	–	–	–	–	Cn1cc(C2=C(c3c(Cl)ccc4ccc(CN5CCC5)cc34)C(=O)NC2=O)c2ccccc21	–
> 316 nM	3.3 nM	> 316 nM	> 316 nM	4.7 nM	254 nM	–	–	–	–	–	–	Cn1cc(C2=C(c3c(Cl)ccc4ccc(CN)cc34)C(=O)NC2=O)c2ccccc21	–
> 316 nM	93 nM	> 316 nM	> 316 nM	73 nM	> 316 nM	–	–	–	–	–	–	Cn1cc(C2=C(c3cccc4ccc(CN)cc34)C(=O)NC2=O)c2ccccc21	–
> 316 nM	60 nM	> 316 nM	> 316 nM	63 nM	> 316 nM	Insoluble	> 3550 nM	–	–	–	–	CN(Cc1ccc2ccc(Cl)c(C3=C(c4cn(C)c5ccccc45)C(=O)NC3=O)c2c1)C1CC1	–
402 nM	3.7 nM	565 nM	263 nM	4 nM	214 nM	Insoluble	402 nM	1 nM	0.5 nM	> 50%	220 nM	CN(C)Cc1ccc2ccc(Cl)c(C3=C(c4cn(C)c5ccccc45)C(=O)NC3=O)c2c1	277 nM
> 316 nM	75 nM	> 316 nM	> 316 nM	36 nM	> 316 nM	–	–	–	–	–	–	NCc1ccc2cccc(C3=C(c4c[nH]c5ccccc45)C(=O)NC3=O)c2c1	–
